Results from US20200037600A1, “MESOIONIC IMIDAZOPYRIDINES AS INSECTICIDES” (Bayer Aktiengesellschaft, priority 2017, published 2020).
Like-named read-outs stand apart in the source and are kept apart here. One block for each compound: values may come before it.

Key:
Myzus persicae [1] = test: Myzus persicae oral test; type: in vivo; conditions: after 5 days; for pest or weed control at 20 ppm / pest or weed control at 4 ppm: Myzus persicae, po, 120 h, read-out: efficacy
Description: Solvent: 100 parts by weight of acetone
To produce a suitable active compound formulation, 1 part by weight of active compound is dissolved with the stated parts by weight of solvent and made up to the desired concentration with water.
50 μl of the active compound formulation are transferred into microtitre plates and made up to a final volume of 200 μl with 150 μl of IPL41 insect medium (33%+15% sugar). Subsequently, the plates are sealed with parafilm, which a mixed population of green peach aphids (Myzus persicae) within a second microtitre plate is able to puncture and imbibe the solution.
(§1) After 5 days, the efficacy in % is determined. 100% means that all the aphids have been killed; 0% means that no aphids have been killed.

[2] = log P by HPLC (EEC directive 79/831 Annex V.A8); type: physicochemical
Description: The log P values reported in the tables and preparation examples above were determined in accordance with EEC directive 79/831 Annex V.A8 by HPLC (High Performance Liquid Chromatography) using a reversed-phase column (C18). Temperature 43° C. The calibration is effected with unbranched alkan-2-ones (having 3 to 16 carbon atoms), for which the log P values are known.

Diabrotica balteata = Diabrotica balteata spray test; type: in vivo; conditions: application rate 160 μg/well, beetle larvae on germinated wheat grains, after 7 days; for pest or weed control at 160 µg/disc, 160 µg/well: Diabrotica balteata, 168 h, read-out: efficacy
Description: Diabrotica balteata—Spray Test
(§2) Solvent: 78 parts by weight of acetone • • 1.5 parts by weight of dimethylformamide
(§3) Emulsifier: alkylaryl polyglycol ether
(§4) To produce a suitable active compound formulation, 1 part by weight of active compound is dissolved with the specified parts by weight of solvent and made up to the desired concentration with water containing an emulsifier concentration of 1000 ppm. To produce further test concentrations, the formulation is diluted with emulsifier-containing water.
Pre-swollen wheat grains (Triticum aestivum) are incubated in a multiwell plate filled with agar and a little water for one day (5 seed grains per well). The germinated wheat grains are sprayed with an active compound preparation of the desired concentration. Subsequently, each cavity is infected with 10-20 beetle larvae of Diabrotica balteata.
After 7 days, the efficacy in % is determined. 100% means that all maize plants have grown as in the untreated, uninfected control; 0% means that no maize plant has grown.

Myzus persicae [3] = test: Myzus persicae spray test; type: in vivo; conditions: application rate 500 g/ha, Chinese cabbage leaf discs, after 5 days; for pest or weed control at 500 g/ha: Myzus persicae, foliar, 120 h, read-out: efficacy
Description: Myzus persicae—Spray Test
as §2, §3, §4
Discs of Chinese cabbage leaves (Brassica pekinensis) infested by all stages of the green peach aphid (Myzus persicae) are sprayed with an active compound formulation of the desired concentration.
as §1

Musca domestica = Musca domestica test; type: in vivo; conditions: application rate 100 ppm; adult houseflies; after 2 days
Description: (§5) Solvent: dimethyl sulfoxide
(§6) To produce a suitable active compound formulation, 10 mg of active compound are mixed with 0.5 ml of dimethyl sulfoxide, and the concentrate is diluted with water to the desired concentration.
Vessels containing a sponge treated with sugar solution and the active compound formulation of the desired concentration are populated with 10 adult houseflies (Musca domestica).
After 2 days, the kill in % is determined. 100% means that all of the flies have been killed; 0% means that none of the flies have been killed.

Lucilia cuprina = Lucilia cuprina test; type: in vivo; conditions: application rate 100 ppm; L1 larvae; after 2 days
Description: as §5, §6
About 20 L1 larvae of the Australian sheep blowfly (Lucilia cuprina) are transferred into a test vessel containing minced horsemeat and the active compound formulation of the desired concentration.
After 2 days, the kill in % is determined. 100% means that all the larvae have been killed; 0% means that no larvae have been killed.

Phaedon cochleariae = Phaedon cochleariae spray test; type: in vivo; conditions: foliar, 168 h, application rate 500 g/ha, larvae on Chinese cabbage leaf discs, after 7 days, read-out: efficacy
Description: Phaedon cochleariae—Spray Test
Solvent: 78.0 parts by weight of acetone • • 1.5 parts by weight of dimethylformamide
as §3, §4
Discs of Chinese cabbage leaves (Brassica pekinensis) are sprayed with an active compound formulation of the desired concentration and, after drying, populated with larvae of the mustard beetle (Phaedon cochleariae).
After 7 days, the efficacy in % is determined. 100% means that all the beetle larvae have been killed; 0% means that no beetle larvae have been killed.

[4] = HPLC, reversed-phase column (C18), 43° C, acidic (HCOOH), read-out: log P (HCOOH)

chromatographic logP [2, 4]: 1.83
Structure (SMILES): O=C(Cn1cc(Cl)cn1)c1c([O-])[n+]2ccccc2n1Cc1cnc(Cl)s1 [Example I-004, 2-[2-(4-Chloropyrazol-1-yl)acetyl]-1-[(2-chlorothiazol-5-yl)methyl]imidazo[1,2-a]pyridin-4-ium-3-olate]
pest or weed control at 20 ppm (Myzus persicae [1]; application rate 20 ppm): 90%

Structure (SMILES): O=C(CCl)c1c([O-])[n+]2ccccc2n1Cc1cnc(Cl)s1 [Example I-005, 2-(2-Chloroacetyl)-1-[(2-chlorothiazol-5-yl)methyl]imidazo[1,2-a]pyridin-4-ium-3-olate]
pest or weed control at 4 ppm (Myzus persicae [1]; application rate 4 ppm): 100%
pest or weed control at 20 ppm (Myzus persicae [1]; application rate 20 ppm): 100%
pest or weed control at 160 µg/disc, 160 µg/well (Diabrotica balteata): 80%
chromatographic logP [2]: 1.58

Structure (SMILES): COCC(=O)c1c([O-])[n+]2ccccc2n1Cc1cnc(Cl)s1 [Example I-010, 1-[(2-Chlorothiazol-5-yl)methyl]-2-(2-methoxyacetyl)imidazo[1,2-a]pyridin-4-ium-3-olate]
pest or weed control at 4 ppm (Myzus persicae [1]; application rate 4 ppm): 100%
pest or weed control at 20 ppm (Myzus persicae [1]; application rate 20 ppm): 100%
pest or weed control at 500 g/ha (Myzus persicae [3]): 100%
pest or weed control at 160 µg/disc, 160 µg/well (Diabrotica balteata): 100%
chromatographic logP [2]: 1.13

Structure (SMILES): CCNC(=O)c1c([O-])[n+]2ccccc2n1Cc1cnc(Cl)s1 [Example I-018]
efficacy (Myzus persicae [1]; application rate 4 ppm): 100%
efficacy (Myzus persicae [1]; application rate 20 ppm): 100%
efficacy (kill in %) (Musca domestica): 85%
efficacy (Myzus persicae [3]): 100%
efficacy (kill in %) (Lucilia cuprina): 100%
efficacy (Diabrotica balteata): 100%

Structure (SMILES): O=C(c1cccc(C(F)(F)F)c1)c1c([O-])[n+]2ccccc2n1Cc1cnc(Cl)s1 [Example I-023]
efficacy (Myzus persicae [1]; application rate 4 ppm): 100%
efficacy (Myzus persicae [3]): 90%
efficacy (kill in %) (Lucilia cuprina): 95%
efficacy (Diabrotica balteata): 100%

Structure (SMILES): CC(C)NC(=O)c1c([O-])[n+]2ccccc2n1Cc1cnc(Cl)s1 [Example I-025, 1-[(2-Chlorothiazol-5-yl)methyl]-2-(isopropylcarbamoyl)imidazo[1,2-a]pyridin-4-ium-3-olate]
pest or weed control at 4 ppm (Myzus persicae [1]; application rate 4 ppm): 100%
efficacy (kill in %) (Musca domestica): 100%
chromatographic logP [2]: 1.66

Structure (SMILES): O=C(c1cccs1)c1c([O-])[n+]2ccccc2n1Cc1cnc(Cl)s1 [Example I-026]
efficacy (Myzus persicae [1]; application rate 4 ppm): 100%
efficacy (kill in %) (Lucilia cuprina): 100%
efficacy (Diabrotica balteata): 100%

Structure (SMILES): CCOC(=O)C(=O)c1c([O-])[n+]2ccccc2n1Cc1cnc(Cl)s1 [Example I-029, 1-[(2-chlorothiazol-5-yl)methyl]-2-(2-ethoxy-2-oxoacetyl)imidazo[1,2-a]pyridin-4-ium-3-olate]
pest or weed control at 4 ppm (Myzus persicae [1]; application rate 4 ppm): 100%
chromatographic logP [2]: 1.55

chromatographic logP [2, 4]: 1.94
Structure (SMILES): O=C(OCC1CC1)C(=O)c1c([O-])[n+]2ccccc2n1Cc1cnc(Cl)s1 [Example I-034, 1-[(2-chlorothiazol-5-yl)methyl]-2-[2-(cyclopropylmethoxy)-2-oxoacetyl]imidazo[1,2-a]pyridin-4-ium-3-olate]
pest or weed control at 4 ppm (Myzus persicae [1]; application rate 4 ppm): 100%
efficacy (kill in %) (Musca domestica): 100%
pest or weed control at 500 g/ha (Myzus persicae [3]): 90%

Structure (SMILES): O=C(OC1CCC1)C(=O)c1c([O-])[n+]2ccccc2n1Cc1cnc(Cl)s1 [Example I-035]
efficacy (Myzus persicae [1]; application rate 4 ppm): 100%
efficacy (kill in %) (Musca domestica): 100%
efficacy (Myzus persicae [3]): 100%

Structure (SMILES): CC(=O)c1c([O-])[n+]2cccc(C)c2n1Cc1cnc(Cl)s1 [Example I-044]
pest or weed control at 4 ppm (Myzus persicae [1]; application rate 4 ppm): 100%
pest or weed control at 500 g/ha (Myzus persicae [3]): 100%
pest or weed control at 160 µg/disc, 160 µg/well (Diabrotica balteata): 100%
pest or weed control at 500 g/ha (Phaedon cochleariae): 83%

Structure (SMILES): COC(=O)C(=O)c1c([O-])[n+]2cccc(C)c2n1Cc1cnc(Cl)s1 [Example I-045]
pest or weed control at 4 ppm (Myzus persicae [1]; application rate 4 ppm): 100%
pest or weed control at 500 g/ha (Myzus persicae [3]): 100%
efficacy (kill in %) (Lucilia cuprina): 90%
pest or weed control at 160 µg/disc, 160 µg/well (Diabrotica balteata): 100%
pest or weed control at 500 g/ha (Phaedon cochleariae): 100%

Structure (SMILES): CO/N=C/C(=O)c1c([O-])[n+]2ccccc2n1Cc1cnc(Cl)s1 [Example I-059, 1-[(2-chlorothiazol-5-yl)methyl]-2-[(2E)-2-methoxyiminoacetyl]imidazo[1,2-a]pyridin-4-ium-3-olate]
pest or weed control at 4 ppm (Myzus persicae [1]; application rate 4 ppm): 100%
pest or weed control at 500 g/ha (Myzus persicae [3]): 70%
pest or weed control at 160 µg/disc, 160 µg/well (Diabrotica balteata): 100%
chromatographic logP [2]: 1.45

Structure (SMILES): Cc1ccc[n+]2c([O-])c(C(=O)C(F)(F)C(F)(F)F)n(Cc3cnc(Cl)s3)c12 [Example I-062]
pest or weed control at 4 ppm (Myzus persicae [1]; application rate 4 ppm): 100%
pest or weed control at 500 g/ha (Myzus persicae [3]): 90%
pest or weed control at 500 g/ha (Phaedon cochleariae): 100%

Structure (SMILES): Cc1ccc[n+]2c([O-])c(C(=O)C(=O)OC3CCC3)n(Cc3cnc(Cl)s3)c12 [Example I-065]
pest or weed control at 4 ppm (Myzus persicae [1]; application rate 4 ppm): 100%
pest or weed control at 500 g/ha (Myzus persicae [3]): 90%
pest or weed control at 500 g/ha (Phaedon cochleariae): 100%

chromatographic logP [2, 4]: 2.48
Structure (SMILES): O=C(c1c([O-])[n+]2cccc(C3CC3)c2n1Cc1cnc(Cl)s1)C(F)(F)F [Example I-078, 1-[(2-chlorothiazol-5-yl)methyl]-8-cyclopropyl-2-(2,2,2-trifluoroacetyl)imidazo[1,2-a]pyridin-4-ium-3-olate]

Structure (SMILES): O=C(COCc1ccnc(Cl)c1)c1c([O-])[n+]2ccccc2n1Cc1ccc(Cl)nc1 [Example I-084, 2-[2-[(2-chloro-4-pyridyl)methoxy]acetyl]-1-[(6-chloro-3-pyridyl)methyl]imidazo[1,2-a]pyridin-4-ium-3-olate]
chromatographic logP [2]: 1.73

chromatographic logP [2, 4]: 2.99
Structure (SMILES): O=C(c1c([O-])[n+]2cccc(-c3ccccc3)c2n1Cc1cnc(Cl)s1)C(F)(F)F [Example I-109, 1-[(2-chlorothiazol-5-yl)methyl]-8-phenyl-2-(2,2,2-trifluoroacetyl)imidazo[1,2-a]pyridin-4-ium-3-olate]

Structure (SMILES): O=C(c1c([O-])[n+]2cccc(I)c2n1Cc1cnc(Cl)s1)C(F)(F)F [Example I-112, 1-[(2-chlorothiazol-5-yl)methyl]-8-iodo-2-(2,2,2-trifluoroacetyl)imidazo[1,2-a]pyridin-4-ium-3-olate]
chromatographic logP [2]: 2.37

Structure (SMILES): O=C(O)CN(Cc1cnc(Cl)s1)c1ccccn1 [Example V-1-001, 2-[(2-Chlorothiazol-5-yl)methyl-(2-pyridyl)amino]acetic Acid]
chromatographic logP [2]: 1.21

Structure (SMILES): CC(C)(C)OC(=O)CN(Cc1cnc(Cl)s1)c1ncccc1I [IV-2-002]
chromatographic logP [2]: 4.62

chromatographic logP [2, 4]: 4.73
Structure (SMILES): CC(C)(C)OC(=O)CN(Cc1cnc(Cl)s1)c1ncccc1C1CC1 [IV-2-003]

Structure (SMILES): Cc1ccc[n+]2c(O)cn(Cc3cnc(Cl)s3)c12 [VII-1-001, 1-[(2-Chlorothiazol-5-yl)methyl]-8-methylimidazo[1,2-a]pyridin-4-ium-3-ol; 2,2,2-trifluoroacetate]
chromatographic logP [2, 4]: 0.75

Structure (SMILES): Oc1cn(Cc2cnc(Cl)s2)c2c(I)ccc[n+]12 [VII-1-002, 1-[(2-chlorothiazol-5-yl)methyl]-8-iodoimidazo[1,2-a]pyridin-4-ium-3-ol 2,2,2-trifluoroacetate]
chromatographic logP [2, 4]: 1.22

Structure (SMILES): Oc1cn(Cc2cnc(Cl)s2)c2c(C3CC3)ccc[n+]12 [VII-1-003, 1-[(2-chlorothiazol-5-yl)methyl]-8-cyclopropylimidazo[1,2-a]pyridin-4-ium-3-ol 2,2,2-trifluoroacetate]
chromatographic logP [2, 4]: 1.27

Structure (SMILES): CC(C)(C)OC(=O)CN(Cc1cnc(Cl)s1)c1ccccn1 [tert-Butyl 2-[(2-chlorothiazol-5-yl)methyl-(2-pyridyl)amino]acetate]
chromatographic logP [2]: 3.59

Structure (SMILES): Cc1cccnc1N(CC(=O)OC(C)(C)C)Cc1cnc(Cl)s1 [tert-Butyl 2-[(2-chlorothiazol-5-yl)methyl-(3-methyl-2-pyridyl)amino]acetate]
chromatographic logP [2]: 4.13
